What was measured:
Assay type in all cases: cell-based
EGFR L858R (BaF3-L858R) = molecular target: T1, EGFR L858R (BaF3-L858R) (Homo sapiens, UniProt P00533, L858R); experiment: EGFR degradation, HTRF total-EGFR assay, BaF3-L858R cells; details: 16 h treatment
T1 construct: host or cells: BaF3
Experimental: BaF3-L858R (abbv. L858R) cell were purchased from Kangyuan Bochuang Biotechnology (Beijing) Co., Ltd.
H1975-#8 and BaF3-L858R cells are treated with compounds diluted in 0.1% DMSO cell culture medium on day 2, incubate for 16 h, 37° C., 5% CO2. the final concentration of compounds in all assay starts with 10 uM, 5-fold dilution, total 8 doses were included.
Total-EGFR cellular kit (64NG1PEH) were used for evaluating EGFR degradation.
After 16 h treatment, for H1975-#8 cells, add 100 μL HTRF 1× lysis buffer to each well; for BaF3-L858R cells, add 20 μL 4× lysis buffer to each well; seal the plate and incubate 1 hour at room temperature on a plate shaker; Once the cells are lysed, 16 μL of cell lysate are transferred to a PE 384-well HTRF detection plate; 4 μL of pre-mixed HTRF antibodies are added to each well; cover the plate with a plate sealer, spin 1000 rpm for 1 min, incubate overnight at room temperature; read on BMG PheraStar with HTRF protocol (337 nm-665 nm-620 nm).
The inhibition (degradation) percentage of the compound was calculated by the following equation:
Inhibition percentage of Compound=100−100×(Signal−low control)/(High control−low control), wherein signal=each test compound group
High control=Cell group with added DMSO and without compound, indicating microplate readings without EGFR degradation.
Imax (Dmax) is the maximum percentage of inhibition (degradation).
The IC50 (DC50) value of a compound can be obtained by fitting the following equation
Wherein, X and Y are known values, and IC50, Hillslope, Top and Bottom are the parameters obtained by fitting with software. Y is the inhibition percentage (calculated from the equation), X is the concentration of the compound; IC50 is the concentration of the compound when the 50% inhibition is reached. The smaller the IC50 value is, the stronger the inhibitory ability of the compound is. Vice versa, the higher the IC50 value is, the weaker the ability the inhibitory ability of the compound is; Hillslope represents the slope of the fitted curve, generally around 1*; Bottom represents the minimum value of the curve obtained by data fitting, which is generally 0%±20%; Top represents the maximum value of the curve obtained by data fitting, which is generally 100%±20%. The experimental data were fitted by calculating and analyzing with Dotmatics data analysis software.

[1] = molecular target: EGFR Del19/T790M/C797S (H1975-clone #28) (Homo sapiens, UniProt P00533, T790M/C797S, form not given); experiment: EGFR degradation, HTRF total-EGFR assay, H1975-clone #28 (DTC); details: H1975-clone #28 Del19/T790M/C797S, 16 h treatment
Summary of the method: (§1)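 H1975 clones with endogenous EGFR knocked out and homozygous exogenous EGFR mutants (#28 Del19/T790M/C797S; #25 L858R/T790M/C797S) treated 16 h at 37 °C, 8 doses, 5-fold from 10 μM, 0.2% DMSO. Total EGFR measured by HTRF on lysates, normalised to DMSO controls; DC50 and Dmax from curve fit.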

[2] = molecular target: T2, EGFR L858R/T790M/C797S (H1975-clone #25) (Homo sapiens, UniProt P00533, C797S/L858R/T790M); experiment: EGFR degradation, HTRF total-EGFR assay, H1975-clone #25 (LTC); details: H1975-clone #25 L858R/T790M/C797S, 16 h treatment
T2 construct: expressed in transfected cells; host or cells: H1975 (clone #25), lentiviral transduction, endogenous EGFR knocked out
Summary of the method: as §1

Compound: Cc1cc2cc(n1)-c1cnn(C)c1OC[C@H]1C[C@@H](CN3/C(=N/C2=O)Nc2ccc(N4CCN(C5CN(C6CCN(c7cc(F)c([C@H]8CCC(=O)NC8=O)c(F)c7)CC6)C5)C[C@H]4C)cc23)C1 [Example 148, (R)-3-(4-(4-(3-((R)-4-((7^1s,7^3S,E)-1^1,2^6-dimethyl-3-oxo-5^2,5^3-dihydro-1^1H,5^1H-9-oxa-4-aza-5(2,1)-benzo[d]imidazola-2(2,4)-pyridina-1(4,5)-pyrazola-7(1,3)-cyclobutanacyclononaphane-5^6-yl)-3-methylpiperazin-1-yl)azetidin-1-yl)piperidin-1-yl)-2,6-difluorophenyl)piperidine-2,6-dione]
- DC50 (EGFR L858R (BaF3-L858R)): 3 nM
- Dmax (EGFR L858R (BaF3-L858R)): 80%

Compound: Cc1cc2cc(n1)-c1cnn(C)c1OC[C@H]1C[C@@H](CN3/C(=N/C2=O)Nc2ccc(N4CCN(C5CCN(c6ccc(C7CCC(=O)NC7=O)nc6C)CC5)CC4=O)cc23)C1 (stereo partly shown) [Example 22, 3-(5-(4-(4-((7^1s,7^3s,E)-1^1,2^6-dimethyl-3-oxo-5^2,5^3-dihydro-1^1H,5^1H-9-oxa-4-aza-5(2,1)-benzo[d]imidazola-2(2,4)-pyridina-1(4,5)-pyrazola-7(1,3)-cyclobutanacyclononaphane-5^6-yl)-3-oxopiperazin-1-yl)piperidin-1-yl)-6-methylpyridin-2-yl)piperidine-2,6-dione]
- Degradation H1975 # 28 DTC [1]: 89.5
- Degradation H1975 # 25-LTC [2]: 91.7

Compound: Cc1cc2cc(n1)-c1cnn(C)c1OC[C@H]1C[C@@H](CN3/C(=N/C2=O)Nc2ccc(N4CCC(N5CCN(c6ccc(C7CCC(=O)NC7=O)nc6C)C[C@@H]5C)CC4)cc23)C1 (stereo partly drawn) [Example 44, 3-(5-((S)-4-(1-((7^1s,7^3R,E)-1^1,2^6-dimethyl-3-oxo-5^2,5^3-dihydro-1^1H,5^1H-9-oxa-4-aza-5(2,1)-benzo[d]imidazola-2(2,4)-pyridina-1(4,5)-pyrazola-7(1,3)-cyclobutanacyclononaphane-5^6-yl)piperidin-4-yl)-3-methylpiperazin-1-yl)-6-methylpyridin-2-yl)piperidine-2,6-dione]
- Degradation H1975 # 28 DTC [1]: 80.7
- Degradation H1975 # 25-LTC [2]: 91.3

Compound: Cc1cc2cc(n1)-c1cnn(C)c1OC[C@H]1C[C@H](CN3/C(=N/C2=O)Nc2ccc(CN4CCN(C(=O)C5CN(c6cc(F)c([C@H]7CCC(=O)NC7=O)c(F)c6)CC5(C)C)CC4)cc23)C1 (stereo partly drawn) [Example 2, (R)-3-(4-((S)-4-(4-(((7^1r,7^3S,E)-1^1,2^6-dimethyl-3-oxo-5^2,5^3-dihydro-1^2H,5′H-9-oxa-4-aza-5(2,1)-benzo[d]imidazola-2(2,4)-pyridina-1(4,5)-pyrazola-7(1,3)-cyclobutanacyclononaphane-5^6-yl)methyl)piperazine-1-carbonyl)-3,3-dimethylpyrrolidin-1-yl)-2,6-difluorophenyl)piperidine-2,6-dione]
- Degradation H1975 # 28 DTC [1]: 84.3
- Degradation H1975 # 25-LTC [2]: 62.0

Compound: Cc1cc2cc(n1)-c1cnn(C)c1OC[C@H]1C[C@@H](CN3/C(=N/C2=O)Nc2ccc(N4CCC(N5C[C@@H]6C[C@H]5CN6c5ccc(C6CCC(=O)NC6=O)nc5C)CC4)cc23)C1 (stereo partly drawn) [Example 47, 3-(5-((1S,4S)-5-(1-((7^1s,7^3R,E)-1^1,2^6-dimethyl-3-oxo-5^2,5^3-dihydro-1′H,5^1H-9-oxa-4-aza-5(2,1)-benzo[d]imidazola-2(2,4)-pyridina-1(4,5)-pyrazola-7(1,3)-cyclobutanacyclononaphane-5^6-yl)piperidin-4-yl)-2,5-diazabicyclo[2.2.1]heptan-2-yl)-6-methylpyridin-2-yl)piperidine-2,6-dione]
- Degradation H1975 # 28 DTC [1]: 78.5
- Degradation H1975 # 25-LTC [2]: 93.3

Compound: Cc1cc2cc(n1)-c1cnn(C)c1OC[C@H]1C[C@@H](CN3/C(=N/C2=O)Nc2ccc(N4C5CCC4CN(C4CCN(c6cc(F)c([C@H]7CCC(=O)NC7=O)c(F)c6)CC4)C5)cc23)C1 [Example 128, (3R)-3-(4-(4-(8-((7^1s,7^3s,E)-1^1,2^6-dimethyl-3-oxo-5^2,5^3-dihydro-1^1H,5^1H-9-oxa-4-aza-5(2,1)-benzo[d]imidazola-2(2,4)-pyridina-1(4,5)-pyrazola-7(1,3)-cyclobutanacyclononaphane-5^6-yl)-3,8-diazabicyclo[3.2.1]octan-3-yl)piperidin-1-yl)-2,6-difluorophenyl)piperidine-2,6-dione]
- Degradation H1975 # 28 DTC [1]: 75.7
- Degradation H1975 # 25-LTC [2]: 73.7

Compound: Cc1cc2cc(n1)-c1cnn(C)c1OC[C@H]1C[C@@H](CN3/C(=N/C2=O)Nc2ccc(N4CCN([C@@H]5CCN(c6cnc(C7CCC(=O)NC7=O)cc6C)C[C@@H]5F)CC4)cc23)C1 (stereo partly drawn) [Example 133, 3-(5-((3S,4R)-4-(4-((7^1s,7^3S,E)-1^1,2^6-dimethyl-3-oxo-5^2,5^3-dihydro-1^1H,5^1H-9-oxa-4-aza-5(2,1)-benzo[d]imidazola-2(2,4)-pyridina-1(4,5)-pyrazola-7(1,3)-cyclobutanacyclononaphane-5^6-yl)piperazin-1-yl)-3-fluoropiperidin-1-yl)-4-methylpyridin 2-yl)piperidine-2,6-dione]
- Degradation H1975 # 28 DTC [1]: 88.8
- Degradation H1975 # 25-LTC [2]: 92.1

Compound: Cc1cc2cc(n1)-c1cnn(C)c1OC[C@H]1C[C@@H](CN3/C(=N/C2=O)Nc2ccc(N4CCN(C5CCN(c6cc(F)c([C@H]7CCC(=O)NC7=O)c(F)c6)CC5)[C@H](CO)C4)cc23)C1 [Example 30, (R)-3-(4-(4-((S)-4-((7^1s,7^3R,E)-1^1,2^6-dimethyl-3-oxo-5^2,5^3-dihydro-1^1H,5^1H-9-oxa-4-aza-5(2,1)-benzo[d]imidazola-2(2,4)-pyridina-1(4,5)-pyrazola-7(1,3)-cyclobutanacyclononaphane-5^6-yl)-2-(hydroxymethyl)piperazin-1-yl)piperidin-1-yl)-2,6-difluorophenyl)piperidine-2,6-dione]
- Degradation H1975 # 28 DTC [1]: 84.4
- Degradation H1975 # 25-LTC [2]: 90.3

Compound: Cc1cc2cc(n1)-c1cnn(C)c1OC[C@H]1C[C@@H](CN3/C(=N/C2=O)Nc2ccc(N4CCN(C5CN(C6CCN(c7cnc(C8CCC(=O)NC8=O)cc7C)CC6)C5)CC4)cc23)C1 (stereo partly shown) [Example 131, 3-(5-(4-(3-(4-((7^1s,7^3s,E)-1^1,2^6-dimethyl-3-oxo-5^2,5^3-dihydro-1^1H,5^1H-9-oxa-4-aza-5(2,1)-benzo[d]imidazola-2(2,4)-pyridina-1(4,5)-pyrazola-7(1,3)-cyclobutanacyclononaphane-5^6-yl)piperazin-1-yl)azetidin-1-yl)piperidin-1-yl)-4-methylpyridin-2-yl)piperidine-2,6-dione]
- Degradation H1975 # 28 DTC [1]: 68.0
- Degradation H1975 # 25-LTC [2]: 84.8

Compound: (R)-3-(4-(4-(4-((7^1s,7^3s,E)-1^1,2^6-dimethyl-3-oxo-5^2,5^3-dihydro-1^1H,5^1H-9-oxa-4-aza-5(2,1)-benzo[d]imidazola-2(2,4)-pyridina-1(4,5)-pyrazola-7(1,3)-cyclobutanacyclononaphane-5^6-yl)piperazin-1-yl)piperidin-1-yl)-2,6-difluorophenyl)piperidine-2,6-dione [Example 6]
- Degradation H1975 # 28 DTC [1]: 91.2
- Degradation H1975 # 25-LTC [2]: 91.7

Compound: Cc1cc2cc(n1)-c1cnn(C)c1OC[C@H]1C[C@@H](CN3/C(=N/C2=O)Nc2ccc(N4CCN(C5CCN(c6ccc(C7CCC(=O)NC7=O)nc6)CC5)C(=O)C4)cc23)C1 (stereo partly shown) [Example 35, 3-(5-(4-(4-((7^1s,7^3s,E)-1^1,2^6-dimethyl-3-oxo-5^2,5^3-dihydro-1^1H,5^1H-9-oxa-4-aza-5(2,1)-benzo[d]imidazola-2(2,4)-pyridina-1(4,5)-pyrazola-7(1,3)-cyclobutanacyclononaphane-5^6-yl)-2-oxopiperazin-1-yl)piperidin-1-yl)pyridin-2-yl)piperidine-2,6-dione]
- Degradation H1975 # 28 DTC [1]: 72.9
- Degradation H1975 # 25-LTC [2]: 85.9

Source: patent US20250332266A1, “COMPOUNDS FOR THE DEGRADATION OF EGFR KINASE” (BeiGene Switzerland GmbH, priority 2022, published 2025)
